Activity calls are given as the source filed them. Bounds are passed on as bounds.

Experiment [1] deals with T1, Histone-lysine N-methyltransferase NSD2 (Homo sapiens, UniProt O96028).
T1 sequence (O96028 whole entry): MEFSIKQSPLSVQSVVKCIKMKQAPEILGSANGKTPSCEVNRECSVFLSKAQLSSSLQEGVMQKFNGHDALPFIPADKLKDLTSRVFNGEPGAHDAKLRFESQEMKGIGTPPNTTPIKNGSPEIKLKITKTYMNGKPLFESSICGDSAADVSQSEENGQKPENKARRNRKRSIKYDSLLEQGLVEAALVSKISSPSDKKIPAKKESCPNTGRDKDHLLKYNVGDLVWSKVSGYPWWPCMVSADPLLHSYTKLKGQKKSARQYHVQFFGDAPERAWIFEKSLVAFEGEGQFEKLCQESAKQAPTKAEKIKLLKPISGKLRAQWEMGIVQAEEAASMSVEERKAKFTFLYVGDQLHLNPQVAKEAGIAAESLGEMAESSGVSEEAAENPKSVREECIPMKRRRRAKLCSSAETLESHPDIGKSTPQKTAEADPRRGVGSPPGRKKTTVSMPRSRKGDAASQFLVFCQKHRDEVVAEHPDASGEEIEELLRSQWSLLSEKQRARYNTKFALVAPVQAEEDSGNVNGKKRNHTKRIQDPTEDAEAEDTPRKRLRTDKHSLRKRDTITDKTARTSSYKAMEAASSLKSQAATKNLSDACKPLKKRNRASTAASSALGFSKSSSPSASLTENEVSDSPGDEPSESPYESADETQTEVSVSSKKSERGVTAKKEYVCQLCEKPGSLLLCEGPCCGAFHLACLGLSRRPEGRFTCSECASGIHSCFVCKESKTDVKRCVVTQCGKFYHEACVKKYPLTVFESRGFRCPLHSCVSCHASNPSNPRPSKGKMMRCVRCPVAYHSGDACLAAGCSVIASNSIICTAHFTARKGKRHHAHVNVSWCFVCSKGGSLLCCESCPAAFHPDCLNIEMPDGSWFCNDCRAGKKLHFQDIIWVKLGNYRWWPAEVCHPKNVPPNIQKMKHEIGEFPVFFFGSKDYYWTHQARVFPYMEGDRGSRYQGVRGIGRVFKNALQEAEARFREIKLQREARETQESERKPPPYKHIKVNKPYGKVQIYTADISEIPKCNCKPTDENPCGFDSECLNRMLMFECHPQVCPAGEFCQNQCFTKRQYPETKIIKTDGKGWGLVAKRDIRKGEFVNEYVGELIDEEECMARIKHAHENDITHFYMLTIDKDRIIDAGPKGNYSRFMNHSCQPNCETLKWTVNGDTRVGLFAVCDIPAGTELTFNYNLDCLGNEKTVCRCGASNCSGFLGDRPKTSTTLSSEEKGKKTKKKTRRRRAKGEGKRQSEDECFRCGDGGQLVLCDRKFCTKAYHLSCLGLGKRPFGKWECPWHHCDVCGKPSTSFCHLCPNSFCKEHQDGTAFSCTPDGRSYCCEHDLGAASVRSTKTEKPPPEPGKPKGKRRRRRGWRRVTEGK
It is filed as biochemical.

For experiment [2], the target named is T2, Serine/threonine-protein phosphatase (Candida dubliniensis (strain CD36 / CBS 7987 / NCPF 3949 / NRRLY-17841) (Yeast), UniProt B9W6M3).
T2 sequence (B9W6M3 whole entry): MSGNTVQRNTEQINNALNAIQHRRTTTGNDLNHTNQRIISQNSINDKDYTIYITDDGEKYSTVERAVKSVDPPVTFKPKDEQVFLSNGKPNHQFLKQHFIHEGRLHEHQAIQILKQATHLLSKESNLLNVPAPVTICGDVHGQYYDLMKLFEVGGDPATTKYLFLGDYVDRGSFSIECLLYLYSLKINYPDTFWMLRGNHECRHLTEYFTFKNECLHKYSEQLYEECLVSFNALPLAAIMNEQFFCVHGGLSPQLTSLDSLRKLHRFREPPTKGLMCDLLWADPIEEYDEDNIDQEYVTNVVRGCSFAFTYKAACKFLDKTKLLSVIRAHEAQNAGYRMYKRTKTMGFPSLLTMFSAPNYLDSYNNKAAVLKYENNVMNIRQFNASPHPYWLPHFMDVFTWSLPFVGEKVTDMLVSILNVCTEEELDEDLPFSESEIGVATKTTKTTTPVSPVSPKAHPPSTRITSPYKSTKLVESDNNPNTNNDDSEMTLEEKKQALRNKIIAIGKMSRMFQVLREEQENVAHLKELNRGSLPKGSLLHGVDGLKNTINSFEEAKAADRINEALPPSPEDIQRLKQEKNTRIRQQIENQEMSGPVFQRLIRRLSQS
Description: blockers of CaCl2-induced CDRE-lacZ signaling – S. cerevisiae, luminescence, secondary, dose response (AID 2388).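 Note: yeast reporter cells carrying a calcineurin-responsive lacZ construct stimulated with calcium chloride; luminescent beta-galactosidase reporter signal in whole cells rather than isolated phosphatase activity; potency for inhibition where a drop in reporter signal means calcineurin blockade.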 The format is functional, cell-based.

The next experiment addresses Nonstructural protein 1 (Influenza A virus, UniProt Q194T2). The format is functional, Influenza A virus (A/California/07/2009(H1N1)).
For experiment [3], the target named is Receptor-type tyrosine-protein kinase FLT3 (Homo sapiens, UniProt P36888). It is filed as functional.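 Note: FLT3 was tested as one member of a kinome-wide kinase panel.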
For experiment [4], the target named is Cyclin-dependent kinase 8 (Homo sapiens, UniProt P49336). Description: Navigating the Kinome. Panel member name: CDK8. The format is functional.
Experiment [5] has as its target Macrophage-stimulating protein receptor (Homo sapiens, UniProt Q04912). Description: Navigating the Kinome. Panel member name: MST1R. The format is functional.
Experiment [6] concerns the target Mitogen-activated protein kinase 14 (Homo sapiens, UniProt Q16539). It is filed as functional.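 Note: part of a kinome-wide panel, MAPK14 entry.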

Nonstructural protein 1, sequence (Q194T2 whole entry): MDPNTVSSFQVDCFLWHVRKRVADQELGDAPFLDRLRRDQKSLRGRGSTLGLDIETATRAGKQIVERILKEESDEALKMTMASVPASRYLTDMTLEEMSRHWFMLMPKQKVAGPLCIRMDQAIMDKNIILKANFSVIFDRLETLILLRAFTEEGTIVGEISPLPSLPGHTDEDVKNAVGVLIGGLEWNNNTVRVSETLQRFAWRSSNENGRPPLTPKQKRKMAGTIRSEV
Cyclin-dependent kinase 8, sequence (P49336 whole entry): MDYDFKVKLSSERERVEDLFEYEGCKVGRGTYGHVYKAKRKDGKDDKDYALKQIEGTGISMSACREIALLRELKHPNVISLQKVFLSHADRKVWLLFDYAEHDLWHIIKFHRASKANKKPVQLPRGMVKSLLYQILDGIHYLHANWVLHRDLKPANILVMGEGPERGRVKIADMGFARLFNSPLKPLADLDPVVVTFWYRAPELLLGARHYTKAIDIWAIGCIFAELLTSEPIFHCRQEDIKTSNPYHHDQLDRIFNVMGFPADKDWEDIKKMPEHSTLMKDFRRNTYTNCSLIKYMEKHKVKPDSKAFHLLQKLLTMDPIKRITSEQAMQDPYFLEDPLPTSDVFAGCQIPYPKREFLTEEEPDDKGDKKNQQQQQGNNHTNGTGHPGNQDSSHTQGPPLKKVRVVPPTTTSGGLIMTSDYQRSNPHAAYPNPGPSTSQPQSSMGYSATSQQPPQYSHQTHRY
Macrophage-stimulating protein receptor, sequence (Q04912 25-304 limits assumed): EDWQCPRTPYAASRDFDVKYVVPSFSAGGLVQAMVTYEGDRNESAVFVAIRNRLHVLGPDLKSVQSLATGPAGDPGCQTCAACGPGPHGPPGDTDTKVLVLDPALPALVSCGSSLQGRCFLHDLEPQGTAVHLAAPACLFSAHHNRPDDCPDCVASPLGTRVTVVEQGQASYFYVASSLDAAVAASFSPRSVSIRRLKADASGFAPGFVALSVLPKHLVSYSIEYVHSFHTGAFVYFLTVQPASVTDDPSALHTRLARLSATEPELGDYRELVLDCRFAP
Macrophage-stimulating protein receptor, sequence (Q04912 310-1400 limits assumed): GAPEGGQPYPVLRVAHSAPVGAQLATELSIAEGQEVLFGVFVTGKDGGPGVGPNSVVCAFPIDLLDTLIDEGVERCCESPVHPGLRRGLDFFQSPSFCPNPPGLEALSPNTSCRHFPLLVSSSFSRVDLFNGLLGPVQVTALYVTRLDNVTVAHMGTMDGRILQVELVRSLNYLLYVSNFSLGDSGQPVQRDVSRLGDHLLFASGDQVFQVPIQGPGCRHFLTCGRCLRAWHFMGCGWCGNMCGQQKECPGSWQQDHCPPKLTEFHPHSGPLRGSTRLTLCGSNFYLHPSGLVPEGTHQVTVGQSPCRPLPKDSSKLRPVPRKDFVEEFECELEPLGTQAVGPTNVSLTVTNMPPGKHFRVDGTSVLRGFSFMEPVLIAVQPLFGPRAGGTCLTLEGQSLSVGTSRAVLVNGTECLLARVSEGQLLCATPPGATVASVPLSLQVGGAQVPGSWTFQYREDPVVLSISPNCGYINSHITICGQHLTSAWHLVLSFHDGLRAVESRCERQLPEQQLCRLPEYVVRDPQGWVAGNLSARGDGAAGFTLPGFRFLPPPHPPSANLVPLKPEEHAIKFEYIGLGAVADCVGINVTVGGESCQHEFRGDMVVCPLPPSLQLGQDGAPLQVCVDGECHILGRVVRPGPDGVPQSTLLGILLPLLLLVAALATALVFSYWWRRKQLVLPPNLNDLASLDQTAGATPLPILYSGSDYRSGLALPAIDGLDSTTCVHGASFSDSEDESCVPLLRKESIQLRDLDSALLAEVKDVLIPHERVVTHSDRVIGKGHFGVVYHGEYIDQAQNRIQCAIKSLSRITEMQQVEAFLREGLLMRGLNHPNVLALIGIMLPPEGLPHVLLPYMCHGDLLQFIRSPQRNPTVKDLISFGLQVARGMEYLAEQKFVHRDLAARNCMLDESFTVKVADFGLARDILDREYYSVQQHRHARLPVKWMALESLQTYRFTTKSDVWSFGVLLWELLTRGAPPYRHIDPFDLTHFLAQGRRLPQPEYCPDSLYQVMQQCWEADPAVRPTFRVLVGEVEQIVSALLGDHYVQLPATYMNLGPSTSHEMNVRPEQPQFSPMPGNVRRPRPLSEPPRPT
Receptor-type tyrosine-protein kinase FLT3, sequence (P36888 whole entry): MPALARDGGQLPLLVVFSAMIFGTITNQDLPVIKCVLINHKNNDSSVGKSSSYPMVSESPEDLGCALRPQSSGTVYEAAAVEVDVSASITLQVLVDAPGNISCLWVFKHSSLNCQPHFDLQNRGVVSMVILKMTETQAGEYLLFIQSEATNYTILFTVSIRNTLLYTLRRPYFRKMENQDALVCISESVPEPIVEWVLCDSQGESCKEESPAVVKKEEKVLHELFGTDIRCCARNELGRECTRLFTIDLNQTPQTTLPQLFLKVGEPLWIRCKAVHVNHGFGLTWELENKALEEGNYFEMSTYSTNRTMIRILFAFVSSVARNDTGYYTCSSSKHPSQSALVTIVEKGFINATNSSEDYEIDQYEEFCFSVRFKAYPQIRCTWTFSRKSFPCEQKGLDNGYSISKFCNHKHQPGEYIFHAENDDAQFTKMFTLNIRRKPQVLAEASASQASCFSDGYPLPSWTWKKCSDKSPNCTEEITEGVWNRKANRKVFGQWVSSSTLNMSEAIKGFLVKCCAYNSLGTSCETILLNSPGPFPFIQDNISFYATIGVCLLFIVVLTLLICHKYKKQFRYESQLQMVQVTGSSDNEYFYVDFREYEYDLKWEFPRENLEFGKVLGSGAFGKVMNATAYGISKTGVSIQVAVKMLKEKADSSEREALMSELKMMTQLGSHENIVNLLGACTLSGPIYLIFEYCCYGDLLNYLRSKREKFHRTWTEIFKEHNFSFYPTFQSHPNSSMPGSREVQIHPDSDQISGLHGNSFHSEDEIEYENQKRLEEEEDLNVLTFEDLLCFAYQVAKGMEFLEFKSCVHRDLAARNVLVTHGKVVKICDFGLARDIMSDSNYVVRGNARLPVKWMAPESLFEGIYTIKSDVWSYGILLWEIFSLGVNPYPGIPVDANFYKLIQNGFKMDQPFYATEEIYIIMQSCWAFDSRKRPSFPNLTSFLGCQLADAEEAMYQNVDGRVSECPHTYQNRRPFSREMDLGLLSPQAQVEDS
Mitogen-activated protein kinase 14, sequence (Q16539 whole entry): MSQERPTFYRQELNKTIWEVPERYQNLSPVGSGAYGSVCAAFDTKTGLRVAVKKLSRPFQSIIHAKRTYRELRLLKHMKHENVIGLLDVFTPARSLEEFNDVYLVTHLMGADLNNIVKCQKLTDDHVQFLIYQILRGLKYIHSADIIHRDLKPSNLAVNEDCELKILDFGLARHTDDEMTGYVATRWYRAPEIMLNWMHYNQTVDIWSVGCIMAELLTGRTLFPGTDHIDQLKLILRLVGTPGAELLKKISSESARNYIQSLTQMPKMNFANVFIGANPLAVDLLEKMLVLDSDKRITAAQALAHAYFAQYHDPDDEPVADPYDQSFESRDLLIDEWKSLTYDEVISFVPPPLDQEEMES

As usually defined, the AC50 is the midpoint of the concentration-response curve, whichever way the signal moves. `O=C(NC1=C(NC2CCS(=O)(=O)C2)C(=O)c2ccccc2C1=O)c1ccccc1` (configuration not stated): in experiment [1], the AC50 is > 20 µM (inactive).

For orientation: EC50 means the midpoint of the concentration-response curve. For orientation: IC50 means the midpoint of a concentration-inhibition curve. For `CCCC(=O)NC(c1ccc(N(C)C)cc1)c1ccc2cccnc2c1O` (configuration not stated), the EC50 in experiment [2] is > 180 µM (inactive). In addition, the half-inhibitory concentration (IC50) at Nonstructural protein 1 is 17.7 µM (active).

As a reminder, the Ki is a measure of affinity in units of concentration, obtained from inhibition or displacement. Regarding `O=C1NC(=O)C(c2c[nH]c3ccccc23)=C1c1nc(N2CCNCC2)nc2ccccc12`, the Ki in experiment [3] is > 3.16 µM (inactive); in experiment [4], > 3.98 µM (inactive); in experiment [5] it was 0.1 µM (active); in experiment [6] it was > 3.98 µM (inactive).

These data come from ChEMBL document CHEMBL1201862, “PubChem BioAssay data set” (2004).
